Results as given in PubChem BioAssay AID256 (DTP/NCI, 2004).
Several values for one entry are separate records, joined by “and”; a condition that tells them apart may be missing. Equal entries are not always repeated. Inconclusive results and toxic doses are left out.

Test system: CD2F1 mice, L1210 leukemia ip, survival T/C
Assay: NCI In Vivo Anticancer Drug Screen. Data for tumor model L1210 Leukemia (intraperitoneal) in CD2F1 (CDF1) mice
Details: higher = longer survival
In short: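 Read-out first: treated-group measurement over vehicle-control measurement, expressed as a ratio. Animals bore a transplanted tumor line and were dosed with compound or vehicle.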

[1] = endpoint: mean survival time, dose: 6.25 mg/kg/injection, schedule: Q01DX009 (ip), vehicle: saline with Tween-80
[2] = endpoint: mean survival time, dose: 12.5 mg/kg/injection, schedule: Q01DX009 (ip), vehicle: saline with Tween-80
[3] = endpoint: mean survival time, dose: 25.0 mg/kg/injection, schedule: Q01DX009 (ip), vehicle: saline with Tween-80
[4] = endpoint: mean survival time, dose: 100.0 mg/kg/injection, schedule: Q04DX003 (ip), vehicle: saline with Tween-80
[5] = endpoint: mean survival time, dose: 100.0 mg/kg/injection, schedule: Q01DX001 (ip), vehicle: saline
[6] = endpoint: mean survival time, dose: 200.0 mg/kg/injection, schedule: Q01DX001 (ip), vehicle: saline
[7] = endpoint: mean survival time, dose: 400.0 mg/kg/injection, schedule: Q01DX001 (ip), vehicle: saline

CCCCNC(C)(C)C(SSC(c1ccc(Cl)cc1)C(C)(C)NCCCC)c1ccc(Cl)cc1 (configuration not stated)
T/C [1]: 96 % of control
T/C [2]: 98 % of control
T/C [3]: 96 % of control and 100 % of control
T/C (endpoint: mean survival time, dose: 25.0 mg/kg/injection, schedule: Q04DX003 (ip), vehicle: saline with Tween-80): 90 % of control
T/C (endpoint: mean survival time, dose: 50.0 mg/kg/injection, schedule: Q04DX003 (ip), vehicle: saline with Tween-80): 92 % of control
T/C [4]: 95 % of control and 96 % of control

CC(C)C(C)c1ccccc1 (configuration not stated)
T/C [5]: 100 % of control
T/C [6]: 100 % of control
T/C [7]: 98 % of control

Nc1ccn([C@@H]2C=C(CO)[C@@H](O)[C@H]2O)c(=O)n1
T/C (endpoint: median survival time, dose: 0.44 mg/kg/injection, schedule: Q01DX009 (ip), vehicle: saline): 162 % of control and 168 % of control
T/C (endpoint: median survival time, dose: 0.45 mg/kg/injection, schedule: Q01DX009 (ip), vehicle: saline): 153 % of control
T/C (endpoint: median survival time, dose: 0.67 mg/kg/injection, schedule: Q01DX009 (ip), vehicle: saline): 180 % of control (2×) and 191 % of control
T/C (endpoint: median survival time, dose: 0.67 mg/kg/injection, schedule: Q01DX009 (oral), vehicle: saline): 101 % of control
T/C (endpoint: median survival time, dose: 1.5 mg/kg/injection, schedule: Q01DX009 (oral), vehicle: saline): 155 % of control and 205 % of control
T/C (endpoint: median survival time, dose: 2.0 mg/kg/injection, schedule: Q04DX003 (ip), vehicle: saline): 171 % of control
T/C (endpoint: median survival time, dose: 2.25 mg/kg/injection, schedule: Q01DX009 (ip), vehicle: saline): 117 % of control and 246 % of control
T/C (endpoint: median survival time, dose: 2.25 mg/kg/injection, schedule: Q01DX009 (oral), vehicle: saline): 157 % of control and 225 % of control
T/C (endpoint: median survival time, dose: 4.0 mg/kg/injection, schedule: Q01DX009 (ip), vehicle: saline): 93 % of control
T/C (endpoint: median survival time, dose: 4.0 mg/kg/injection, schedule: Q04DX003 (ip), vehicle: saline): 191 % of control
T/C (endpoint: median survival time, dose: 5.05 mg/kg/injection, schedule: Q01DX009 (oral), vehicle: saline): 123 % of control and 104 % of control
T/C (endpoint: median survival time, dose: 8.0 mg/kg/injection, schedule: Q04DX003 (ip), vehicle: saline): 183 % of control
T/C (endpoint: median survival time, dose: 250.0 micrograms/kg/injection, schedule: Q03HX024 (ip), vehicle: saline): 187 % of control
T/C (endpoint: median survival time, dose: 500.0 micrograms/kg/injection, schedule: Q03HX024 (ip), vehicle: saline): 216 % of control
T/C (endpoint: median survival time, dose: 2000.0 micrograms/kg/injection, schedule: Q03HX024 (ip), vehicle: saline): 96 % of control

COC(=O)CC(=O)CBr
T/C (endpoint: mean survival time, dose: 5.0 mg/kg/injection, schedule: Q01DX001 (ip), vehicle: saline with Tween-80): 95 % of control
T/C (endpoint: mean survival time, dose: 5.0 mg/kg/injection, schedule: Q01DX009 (ip), vehicle: saline with Tween-80): 100 % of control
T/C (endpoint: mean survival time, dose: 10.0 mg/kg/injection, schedule: Q01DX001 (ip), vehicle: saline with Tween-80): 95 % of control
T/C (endpoint: mean survival time, dose: 10.0 mg/kg/injection, schedule: Q01DX009 (ip), vehicle: saline with Tween-80): 97 % of control
T/C (endpoint: mean survival time, dose: 20.0 mg/kg/injection, schedule: Q01DX001 (ip), vehicle: saline with Tween-80): 95 % of control
T/C (endpoint: mean survival time, dose: 20.0 mg/kg/injection, schedule: Q01DX009 (ip), vehicle: saline with Tween-80): 97 % of control

COCC(O)CN1CCN(c2ccccc2C)CC1 (configuration not stated)
T/C [4]: 93 % of control

Nc1ncnc(N)c1N=O
T/C [4]: 96 % of control
T/C (endpoint: mean survival time, dose: 200.0 mg/kg/injection, schedule: Q04DX003 (ip), vehicle: saline with Tween-80): 89 % of control

CCN(CC)C(=S)[S][Pb]([CH2]C)([CH2]C)[CH2]C
T/C [1]: 96 % of control

N#CC1CCCC1=N (configuration not stated)
T/C [2]: 94 % of control
T/C [3]: 97 % of control
T/C [5]: 110 % of control
T/C [6]: 104 % of control
T/C [7]: 111 % of control

CCCCCCCCCC(=O)N1CC[N+](C)(C)CC1
T/C (endpoint: mean survival time, dose: 5.0 mg/kg/injection, schedule: Q01DX001 (ip), vehicle: saline): 102 % of control
T/C (endpoint: mean survival time, dose: 10.0 mg/kg/injection, schedule: Q01DX001 (ip), vehicle: saline): 105 % of control
T/C (endpoint: mean survival time, dose: 20.0 mg/kg/injection, schedule: Q01DX001 (ip), vehicle: saline): 104 % of control
